Biological target: T1, Human TRPC6 (Homo sapiens, UniProt Q9Y210)
T1 construct: expressed in transfected cells
T1 sequence (Q9Y210 1-931): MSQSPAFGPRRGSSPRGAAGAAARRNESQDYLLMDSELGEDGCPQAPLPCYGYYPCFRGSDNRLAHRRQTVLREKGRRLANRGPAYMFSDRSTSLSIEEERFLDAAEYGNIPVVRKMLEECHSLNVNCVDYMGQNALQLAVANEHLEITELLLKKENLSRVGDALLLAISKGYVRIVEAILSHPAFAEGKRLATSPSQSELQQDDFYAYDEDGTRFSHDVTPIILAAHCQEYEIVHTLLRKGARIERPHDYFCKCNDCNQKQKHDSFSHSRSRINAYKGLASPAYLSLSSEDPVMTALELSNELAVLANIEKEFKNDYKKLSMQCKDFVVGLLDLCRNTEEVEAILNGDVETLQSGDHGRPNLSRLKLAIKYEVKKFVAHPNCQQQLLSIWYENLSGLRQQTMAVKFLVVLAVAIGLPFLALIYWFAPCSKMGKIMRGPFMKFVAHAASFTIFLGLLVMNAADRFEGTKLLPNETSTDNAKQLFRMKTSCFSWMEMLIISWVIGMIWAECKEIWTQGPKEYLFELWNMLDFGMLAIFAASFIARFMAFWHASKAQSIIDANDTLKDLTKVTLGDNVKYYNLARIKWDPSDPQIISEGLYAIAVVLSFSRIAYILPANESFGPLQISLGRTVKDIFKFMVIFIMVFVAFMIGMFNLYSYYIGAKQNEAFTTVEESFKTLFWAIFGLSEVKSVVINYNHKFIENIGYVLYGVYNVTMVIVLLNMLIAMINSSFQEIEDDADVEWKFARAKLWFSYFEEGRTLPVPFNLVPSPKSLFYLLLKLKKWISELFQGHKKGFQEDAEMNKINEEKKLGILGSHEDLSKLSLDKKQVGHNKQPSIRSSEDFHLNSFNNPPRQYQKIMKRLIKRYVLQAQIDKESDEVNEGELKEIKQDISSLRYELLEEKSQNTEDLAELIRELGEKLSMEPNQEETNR
Assay: Evaluation of TRPC6 channel inhibitory activity (1), FLIPR Calcium 5 Assay Kit, OAG stimulation (Compound Nos. 1-1293)
Type: cell-based
Details: Human TRPC6 stably-expressing cells, OAG 30 μM, FLIPR Calcium 5 Assay Kit; read-out: Inhibitory activity (pIC50 class) (converted)
Procedure: Evaluation of TRPC6 Channel Inhibitory Activity (1) (Compound Nos. 1-1293)
In order to investigate TRPC6 channel inhibitory activity of the compounds, evaluation was conducted using FLIPR® Calcium 5 Assay Kit (Molecular Devices) in accordance with the following procedure. Human TRPC6 stably-expressing cells were seeded in a 384-well black clear bottom plate at a density of 5×10^3/well and cultured in an incubator at 37° C. 5% CO2 for 24 hours. Thereafter, 25 μL of a Non Wash Dye Solution, prepared using Component A, 20 mM HEPES-HBSS and 250 mM probenecid, all of which are included in the kit, was added to each well, and the plate was incubated for 30 minutes. A volume of 12.5 μL of a compound solution was added into each well while the fluorescence was measured with FLIPR tetra. After 20 minutes, 12.5 μL of a 1-oleoyl-2-acetyl glycerol (OAG) solution was added at a final concentration of 30 μM. The difference between the minimum fluorescence intensity before the addition of the compound and the maximum fluorescence intensity after the addition of OAG was defined as a signal. An inhibition rate was calculated, assuming the average signal of wells without the compound as the inhibition rate of 0% and the average signal of wells without the compound and OAG as the inhibition rate of 100%. The calculated inhibition rate was analyzed by a four-parameter logistic regression to quantify the inhibition rate in the logarithm of the inverse of the effective concentration which gives a 50% inhibition rate (pIC50). The intensity was expressed by the following symbols (+, ++, +++).

| Structure (SMILES) | IC50 |
| --- | --- |
| Cc1nc(Oc2cc(C#N)ccc2-c2cnn(C3CCNCC3)c2)cc(N2CCOCC2)n1 [Compound 239, 3-(2-methyl-6-morpholin-4-ylpyrimidin-4-yl)oxy-4-(1-piperidin-4-ylpyrazol-4-yl)benzonitrile] | > 1000 nM |
| Cn1nc(C2CCCO2)cc1Oc1cc(C#N)ccc1-c1ccc(CCN)cn1 (stereo not shown) [compound 484, 4-[5-(2-aminoethyl)pyridin-2-yl]-3-[2-methyl-5-(oxolan-2-yl)pyrazol-3-yl]oxybenzonitrile] | < 10 nM |
| Cc1cc(Oc2cc(C#N)ccc2-c2ccc(CN)cn2)cc(NC2CC2)n1 [compound 645, 4-[5-(aminomethyl)pyridin-2-yl]-3-[2-(cyclopropylamino)-6-methylpyridin-4-yl]oxybenzonitrile] | 10 to 1000 nM |
| Cc1cc(Oc2cc(C#N)ccc2-c2ncc(CCN)cn2)cc(N2CCN(C)C(=O)C2)n1 [compound 465, 4-[5-(2-aminoethyl)pyrimidin-2-yl]-3-[2-methyl-6-(4-methyl-3-oxopiperazin-1-yl)pyridin-4-yl]oxybenzonitrile] | > 1000 nM |
| Cc1nn(CC(C)(C)C)cc1Oc1cc(F)ccc1-c1ncc(CCN)cn1 [compound 985, 2-[2-[2-[1-(2,2-dimethylpropyl)-3-methylpyrazol-4-yl]oxy-4-fluorophenyl]pyrimidin-5-yl]ethanamine] | < 10 nM |
| N#Cc1ccc(-c2ccc(CN)cn2)c(C(=O)c2cnc(N3CCOCC3)o2)c1 [compound 1085, 4-[5-(aminomethyl)pyridin-2-yl]-3-(2-morpholin-4-yl-1,3-oxazole-5-carbonyl)benzonitrile] | 10 to 1000 nM |
| CCN(CC)c1nnc(Oc2cc(C#N)ccc2-c2ncc(CCN)cn2)s1 [compound 724, 4-[5-(2-aminoethyl)pyrimidin-2-yl]-3-[[5-(diethylamino)-1,3,4-thiadiazol-2-yl]oxy]benzonitrile] | < 10 nM |
| Cn1nc(-c2cccnc2)cc1Oc1cc(C#N)ccc1-c1ccc(CCN)nc1 [Compound 178, 4-[6-(2-aminoethyl)pyridin-3-yl]-3-(2-methyl-5-pyridin-3-ylpyrazol-3-yl)oxybenzonitrile] | 10 to 1000 nM |
| Cc1cc(Oc2cc(C#N)ccc2-c2ccc(CCCN)cc2)cc(N2CCOCC2)n1 [compound 578, 4-[4-(3-aminopropyl)phenyl]-3-(2-methyl-6-morpholin-4-ylpyridin-4-yl)oxybenzonitrile] | 10 to 1000 nM |
| Cc1cc(Oc2cc(C#N)ccc2-c2ncc(CN)cn2)cc(NC2CCOCC2)n1 [compound 648, 4-[5-(aminomethyl)pyrimidin-2-yl]-3-[2-methyl-6-(oxan-4-ylamino)pyridin-4-yl]oxybenzonitrile] | > 1000 nM |
| CN(C)c1cc(Oc2cc(C#N)ccc2-c2ccc(CN)cn2)cnn1 [compound 698, 4-[5-(aminomethyl)pyridin-2-yl]-3-[6-(dimethylamino)pyridazin-4-yl]oxybenzonitrile] | 10 to 1000 nM |
| Cn1nc(-c2ccccn2)cc1Oc1cc(C#N)ccc1-c1ccc(CCN)cc1 [Compound 160, 4-[4-(2-aminoethyl)phenyl]-3-(2-methyl-5-pyridin-2-ylpyrazol-3-yl)oxybenzonitrile] | < 10 nM |
| Cn1nc(COC2CCCC2)cc1Oc1cc(C#N)ccc1-c1ccc(CCN)cn1 [Compound 245, 4-[5-(2-aminoethyl)pyridin-2-yl]-3-[5-(cyclopentyloxymethyl)-2-methylpyrazol-3-yl]oxybenzonitrile] | 10 to 1000 nM |
| N#Cc1ccc(-c2ccc(CCN)cc2)c(Oc2cnnc(-c3ccccc3)c2)c1 [Compound 69, 4-[4-(2-aminoethyl)phenyl]-3-(6-phenylpyridazin-4-yl)oxybenzonitrile] | < 10 nM |
| CCOC(=O)c1cc(Oc2cc(C#N)ccc2-c2ccc(CCN)cn2)n(C)n1 [compound 309, ethyl 5-[2-[5-(2-aminoethyl)pyridin-2-yl]-5-cyanophenoxy]-1-methylpyrazole-3-carboxylate] | 10 to 1000 nM |
| N#Cc1ccc(-c2ccc(CCN)cn2)c(Oc2cc(N3CCCCC3)cnn2)c1 [Compound 92, 4-[5-(2-aminoethyl)pyridin-2-yl]-3-(5-piperidin-1-ylpyridazin-3-yl)oxybenzonitrile] | > 1000 nM |

Reference: patent US20230167073A1 (Teijin Pharma Limited, priority 2020, published 2023)
